Drawing on US9902722B2, “Biaryl kinase inhibitors” (BRISTOL-MYERS SQUIBB COMPANY, priority 2014, dated 2018), this text covers IC50 for 37 compounds.

In the assay the target is GST-Xa-hAAK1 (Homo sapiens (Human), UniProt Q2M2I8). Put plainly: AAK1 Kinase Assay.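 Further: each compound tested across an eleven-point concentration series, with IC50 obtained through non-linear regression fitting.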 The format is biochemical. Conditions: bacterially expressed GST-Xa-hAAK1 3.5 nM; ATP 22 μM; peptide substrate 1.5 μM; 3 hours at room temperature; Caliper LabChip 3000.
Sequence of GST-Xa-hAAK1 (Q2M2I8 whole entry): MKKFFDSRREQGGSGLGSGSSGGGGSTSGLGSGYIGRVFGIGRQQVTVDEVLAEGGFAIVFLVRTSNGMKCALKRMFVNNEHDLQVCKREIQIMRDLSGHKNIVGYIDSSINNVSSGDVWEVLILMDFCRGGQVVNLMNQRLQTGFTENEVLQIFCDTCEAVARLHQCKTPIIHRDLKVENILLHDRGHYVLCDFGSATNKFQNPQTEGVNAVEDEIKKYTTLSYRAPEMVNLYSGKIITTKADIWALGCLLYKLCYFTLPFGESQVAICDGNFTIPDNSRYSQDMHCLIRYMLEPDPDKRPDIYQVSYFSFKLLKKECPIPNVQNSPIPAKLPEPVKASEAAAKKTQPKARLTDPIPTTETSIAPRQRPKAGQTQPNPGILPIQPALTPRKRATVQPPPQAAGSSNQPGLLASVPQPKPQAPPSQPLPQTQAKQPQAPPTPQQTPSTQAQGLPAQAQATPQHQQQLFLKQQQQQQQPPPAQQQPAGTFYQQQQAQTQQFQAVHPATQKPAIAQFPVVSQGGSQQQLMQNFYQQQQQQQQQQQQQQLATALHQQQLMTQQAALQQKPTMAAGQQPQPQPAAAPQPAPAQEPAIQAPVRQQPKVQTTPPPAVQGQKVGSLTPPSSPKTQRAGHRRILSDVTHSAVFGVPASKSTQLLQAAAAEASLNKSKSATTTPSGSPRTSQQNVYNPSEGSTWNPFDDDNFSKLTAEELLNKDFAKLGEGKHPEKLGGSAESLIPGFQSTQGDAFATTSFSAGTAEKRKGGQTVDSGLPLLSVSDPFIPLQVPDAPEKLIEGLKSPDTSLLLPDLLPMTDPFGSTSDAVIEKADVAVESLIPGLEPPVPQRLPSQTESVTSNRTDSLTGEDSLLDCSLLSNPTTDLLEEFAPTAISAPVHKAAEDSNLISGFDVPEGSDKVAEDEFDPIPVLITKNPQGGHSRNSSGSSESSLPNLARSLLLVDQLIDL

Protocol: The assays were performed in U-bottom 384-well plates. […] The reactions were initiated by the combination of bacterially expressed, GST-Xa-hAAK1 with substrates and test compounds. The reactions were incubated at room temperature for 3 hours and terminated by adding 60 μl of 35 mM EDTA buffer to each sample. […] Compounds were dissolved at 10 mM in dimethylsulfoxide (DMSO) and evaluated at eleven concentrations. IC50 values were derived by non-linear regression analysis.

For the compound `CC(=O)Nc1cc(-c2ccc(OC[C@@H](N)CC(C)C)c(F)c2)ccn1` [Example 1, (S)—N-(4-(4-((2-amino-4-methylpentyl)oxy)-3-fluorophenyl)pyridin-2-yl)acetamide], the half-inhibitory concentration (IC50) (as a rule, the concentration that inhibits the measured activity by half) came out at 2.7 nM.

As to `COc1cc(-c2ccnc(NC(C)=O)c2)ccc1OC[C@@H](N)CC(C)C` [Example 2, (S)—N-(4-(4-((2-amino-4-methylpentyl)oxy)-3-methoxyphenyl)pyridin-2-yl)acetamide], the IC50 turned out to be 3 nM.

As to `CC(=O)Nc1cc(-c2ccc(OC[C@@H](N)CC(C)C)c(C#N)c2)ccn1` [Example 3, (S)—N-(4-(4-((2-amino-4-methylpentyl)oxy)-3-cyanophenyl)pyridin-2-yl)acetamide], half-maximal inhibition (IC50) was put at 0.3 nM.

Compound `CC(C)C[C@H](N)COc1ccc(-c2ccnc(N)c2)cc1C#N` [Example 4, (S)-2-((2-amino-4-methylpentyl)oxy)-5-(2-aminopyridin-4-yl)benzonitrile] registered an IC50 of 2.8 nM.

Compound `CC(=O)Nc1cc(-c2ccc(OC[C@@H](N)CC(C)C)c(C(F)(F)F)c2)ccn1` [Example 5, (S)—N-(4-(4-((2-amino-4-methylpentyl)oxy)-3-(trifluoromethyl)phenyl)pyridin-2-yl)acetamide] had a half-inhibitory concentration (IC50) of 0.5 nM.

`CC(=O)Nc1cc(-c2ccc(OC[C@@H](N)CC(C)C)c(OC(F)(F)F)c2)ccn1` [Example 6, (S)—N-(4-(4-((2-amino-4-methylpentyl)oxy)-3-(trifluoromethoxy)phenyl)pyridin-2-yl)acetamide] displayed a half-inhibitory concentration (IC50) of 0.47 nM.

Turning to `CC(=O)Nc1cc(-c2ccc(OC[C@@H](N)CC(C)C)c(C)c2)ccn1` [Example 7, (S)—N-(4-(4-((2-amino-4-methylpentyl)oxy)-3-methylphenyl)pyridin-2-yl)acetamide], the midpoint of inhibition, the IC50, lay at 0.42 nM.

Compound `CC(=O)Nc1cc(-c2ccc(OC[C@@H](N)CC(C)C)c(Cl)c2)ccn1` [Example 8, (S)—N-(4-(4-((2-amino-4-methylpentyl)oxy)-3-chlorophenyl)pyridin-2-yl)acetamide] showed a 50% inhibitory concentration (IC50) of 0.53 nM.

`CC(=O)Nc1cc(-c2cc(F)c(OC[C@@H](N)CC(C)C)c(Cl)c2)ccn1` [Example 10, (S)—N-(4-(4-((2-amino-4-methylpentyl)oxy)-3-chloro-5-fluorophenyl)pyridin-2-yl)acetamide] had an IC50 of 10 nM.

Turning to `CC(=O)Nc1cc(-c2cc(F)c(OC[C@@H](N)CC(C)C)c(C(F)(F)F)c2)ccn1` [Example 11, (S)—N-(4-(4-((2-amino-4-methylpentyl)oxy)-3-fluoro-5-(trifluoromethyl)phenyl)pyridin-2-yl)acetamide], the 50% inhibitory concentration (IC50) stood at 3.3 nM.

Compound `CC(=O)Nc1cc(-c2cc(F)c(OC[C@@H](N)CC(C)C)cc2F)ccn1` [Example 12, (S)—N-(4-(4-((2-amino-4-methylpentyl)oxy)-2,5-difluorophenyl)pyridin-2-yl)acetamide] yielded a half-inhibitory concentration (IC50) of 1.6 nM.

The compound `COC(=O)Nc1cc(-c2ccc(OC[C@@H](N)CC(C)C)c(F)c2)ccn1` [Example 13, (S)-methyl (4-(4-((2-amino-4-methylpentyl)oxy)-3-fluorophenyl)pyridin-2-yl)carbamate] yielded an IC50 of 1.1 nM.

Take `COC(=O)Nc1cc(-c2ccc(OC[C@@H](N)CC(C)C)c(-c3ccno3)c2)ccn1` [Example 14, (S)-methyl (4-(4-((2-amino-4-methylpentyl)oxy)-3-(isoxazol-5-yl)phenyl)pyridin-2-yl)carbamate]: 0.87 nM corresponded to half-maximal inhibition (IC50).

As to `Cc1cc(-c2ccc(OC[C@@H](N)CC(C)C)c(C#N)c2)ccn1` [Example 15, (S)-2-((2-amino-4-methylpentyl)oxy)-5-(2-methylpyridin-4-yl)benzonitrile], 0.81 nM corresponded to half-maximal inhibition (IC50).

For the compound `Cc1cc(-c2ccc(OC[C@@H](N)CC(C)C)c(-c3ccno3)c2)ccn1` [Example 18, (S)-1-(2-(isoxazol-5-yl)-4-(2-methylpyridin-4-yl)phenoxy)-4-methylpentan-2-amine], it took 5 nM to reach half-maximal inhibition (IC50).

The compound `CC(=O)Nc1cc(-c2ccc(OC[C@@](C)(N)CC(C)C)c(C(F)(F)F)c2)ccn1` [Example 19, (S)—N-(4-(4-((2-amino-2,4-dimethylpentyl)oxy)-3-(trifluoromethyl)phenyl)pyridin-2-yl)acetamide] yielded an IC50 of 0.36 nM.

For `COC(=O)Nc1cc(-c2ccc(OC[C@@](C)(N)CC(C)C)c(C(F)(F)F)c2)ccn1` [Example 20, (S)-methyl (4-(4-((2-amino-2,4-dimethylpentyl)oxy)-3-(trifluoromethyl)phenyl)pyridin-2-yl)carbamate], the concentration for half-maximal inhibition (IC50) came out at 0.34 nM.

Take `CC(=O)Nc1cc(-c2ccc(OC[C@@](C)(N)CC(C)C)c(C#N)c2)ccn1` [Example 21, (S)—N-(4-(4-((2-amino-2,4-dimethylpentyl)oxy)-3-cyanophenyl)pyridin-2-yl)acetamide]: the IC50 stood at 0.74 nM.

As for `COC(=O)Nc1cc(-c2ccc(OC[C@@](C)(N)CC(C)C)c(C#N)c2)ccn1` [Example 22, (S)-methyl (4-(4-((2-amino-2,4-dimethylpentyl)oxy)-3-cyanophenyl)pyridin-2-yl)carbamate], 0.65 nM corresponded to half-maximal inhibition (IC50).

Turning to `CC(=O)Nc1cc(-c2ccc(OC[C@@](C)(N)CC(C)C)c(C(F)F)c2)ccn1` [Example 23, (S)—N-(4-(4-((2-amino-2,4-dimethylpentyl)oxy)-3-(difluoromethyl)phenyl)pyridin-2-yl)acetamide], the IC50 came out at 0.76 nM.

`COC(=O)Nc1cc(-c2ccc(OC[C@@](C)(N)CC(C)C)c(C(F)F)c2)ccn1` [Example 24, (S)-methyl (4-(4-((2-amino-2,4-dimethylpentyl)oxy)-3-(difluoromethyl)phenyl)pyridin-2-yl)carbamate] displayed an IC50 of 0.63 nM.

As for `CC(=O)Nc1cc(-c2ccc(OC[C@@](C)(N)CC(C)C)c(OC(F)(F)F)c2)ccn1` [Example 25, (S)—N-(4-(4-((2-amino-2,4-dimethylpentyl)oxy)-3-(trifluoromethoxy)phenyl)pyridin-2-yl)acetamide], the half-inhibitory concentration (IC50) amounted to 1 nM.

For `COC(=O)Nc1cc(-c2ccc(OC[C@@](C)(N)CC(C)C)c(OC(F)(F)F)c2)ccn1` [Example 26, (S)-methyl (4-(4-((2-amino-2,4-dimethylpentyl)oxy)-3-(trifluoromethoxy)phenyl)pyridin-2-yl)carbamate], the 50% inhibitory concentration (IC50) was found to be 0.69 nM.

Take `CC(=O)Nc1cc(-c2ccc(OC[C@@](C)(N)CC(C)C)c(F)c2)ccn1` [Example 27, (S)—N-(4-(4-((2-amino-2,4-dimethylpentyl)oxy)-3-fluorophenyl)pyridin-2-yl)acetamide]: the IC50 was determined as 1 nM.

`COC(=O)Nc1cc(-c2ccc(OC[C@@](C)(N)CC(C)C)c(F)c2)ccn1` [Example 28, (S)-methyl (4-(4-((2-amino-2,4-dimethylpentyl)oxy)-3-fluorophenyl)pyridin-2-yl)carbamate] came in with a half-inhibitory concentration (IC50) of 1.2 nM.

Compound `COC(=O)Nc1cc(-c2ccc(OCC(C)(N)CC(C)C)c(Cl)c2)ccn1` (stereo not shown) [Example 29, methyl (4-(4-((2-amino-2,4-dimethylpentyl)oxy)-3-chlorophenyl)pyridin-2-yl)carbamate] registered a half-inhibitory concentration (IC50) of 0.67 nM.

In the case of `COC(=O)Nc1cc(-c2ccc(OCC(C)(N)CC(C)C)c(C)c2)ccn1` (stereo not shown) [Example 30, methyl (4-(4-((2-amino-2,4-dimethylpentyl)oxy)-3-methylphenyl)pyridin-2-yl)carbamate], it took 1.4 nM to reach half-maximal inhibition (IC50).

Compound `COC(=O)Nc1cc(-c2ccc(OCC(C)(N)CC(C)C)c(C)c2C)ccn1` (stereo not shown) [Example 31, methyl (4-(4-((2-amino-2,4-dimethylpentyl)oxy)-2,3-dimethylphenyl)pyridin-2-yl)carbamate] returned an IC50 of 4.5 nM.

Turning to `COC(=O)Nc1cc(-c2ccc(OC[C@@](C)(N)CC(C)C)c(CO)c2)ccn1` [Example 32, (S)-methyl (4-(4-((2-amino-2,4-dimethylpentyl)oxy)-3-(hydroxymethyl)phenyl)pyridin-2-yl)carbamate], the half-inhibitory concentration (IC50) worked out at 4.5 nM.

`COC(=O)Nc1cc(-c2ccc(OC[C@@](C)(N)CC(C)C)c(C3CC3)c2)ccn1` [Example 33, (S)-methyl (4-(4-((2-amino-2,4-dimethylpentyl)oxy)-3-cyclopropylphenyl)pyridin-2-yl)carbamate] registered a half-inhibitory concentration (IC50) of 0.32 nM.

`CC(=O)Nc1cc(-c2ccc(OC[C@@](C)(N)CC(C)C)c(C(F)(F)F)c2)c(CO)cn1` [Example 34, (S)—N-(4-(4-((2-amino-2,4-dimethylpentyl)oxy)-3-(trifluoromethyl)phenyl)-5-(hydroxymethyl)pyridin-2-yl)acetamide] displayed an IC50 of 15 nM.

In the case of `CC(C)C[C@](C)(N)COc1ccc(-c2ccnc(C(F)F)c2)cc1C(F)(F)F` [Example 35, (S)-1-(4-(2-(difluoromethyl)pyridin-4-yl)-2-(trifluoromethyl)phenoxy)-2,4-dimethylpentan-2-amine], the concentration for half-maximal inhibition (IC50) is 0.77 nM.

In the case of `CC(C)C[C@](C)(N)COc1ccc(-c2ccnc(C(F)F)c2)cc1C#N` [Example 36, (S)-2-((2-amino-2,4-dimethylpentyl)oxy)-5-(2-(difluoromethyl)pyridin-4-yl)benzonitrile], the midpoint of inhibition, the IC50, lay at 0.89 nM.

Compound `CC(C)C[C@](C)(N)COc1ccc(-c2ccnc(C(F)F)c2)cc1C(F)F` [Example 37, (S)-1-(2-(difluoromethyl)-4-(2-(difluoromethyl)pyridin-4-yl)phenoxy)-2,4-dimethylpentan-2-amine] returned an IC50 of 0.51 nM.

The compound `CC(C)C[C@](C)(N)COc1ccc(-c2ccnc(C(F)F)c2)cc1OC(F)(F)F` [Example 38, (S)-1-(4-(2-(difluoromethyl)pyridin-4-yl)-2-(trifluoromethoxy)phenoxy)-2,4-dimethylpentan-2-amine] had an IC50 of 0.79 nM.

Regarding `CC(C)C[C@](C)(N)COc1ccc(-c2ccnc(F)c2Cl)cc1C(F)(F)F` [Example 39, (S)-1-(4-(3-chloro-2-fluoropyridin-4-yl)-2-(trifluoromethyl)phenoxy)-2,4-dimethylpentan-2-amine], the concentration for half-maximal inhibition (IC50) was determined as 3.2 nM.

In the case of `CC(C)C[C@](C)(N)COc1ccc(-c2cc(F)ncc2Cl)cc1C(F)(F)F` [Example 40, (S)-1-(4-(5-chloro-2-fluoropyridin-4-yl)-2-(trifluoromethyl)phenoxy)-2,4-dimethylpentan-2-amine], the IC50 is 8.7 nM.
